Laboratory results published in US8895585B2, “Nicotinamide derivative or salt thereof” (FUJIFILM Corporation, priority 2010, dated 2014).

Molecular target: T1, glutathione S-transferase (GST)-fused full-length human Syk protein (Homo sapiens, UniProt P43405)
T1 construct: (GST)-fused full-length human Syk protein; GST (glutathione S-transferase); purchased Carna Biosciences
Experiment: Syk enzyme assay
Assay type: biochemical
Details: Syk enzyme assay, Test Example 1; read-out: IC50 of Syk-inhibitory activity
Procedure: A glutathione S-transferase (GST)-fused full-length human Syk protein (Carna Biosciences), which had been generated using a Baculovirus expression system, was used in the Syk enzyme assay.
15 μl of a reaction solution (1.2 ng Syk, 20 mM HEPES, 10 mM MgCl2, 50 mM NaCl, 2 mM DTT, 0.05% BSA, pH 7.0) containing a Syk protein and a predetermined concentration of a test compound was shaken for 2 minutes, and it was then left at rest at room temperature for 13 minutes. Thereafter, 5 μl of Biotin-EDPDYEWPSA-NH2 (final concentration: 0.4 μM) serving as a substrate peptide and 5 μl of ATP (final concentration: 27 μM) were added to the reaction solution, and the obtained mixture was then shaken for 2 minutes. The reaction solution was further left at rest at room temperature for 40 minutes, so as to carry out an enzyme reaction.
Thereafter, 50 μl of a reaction termination solution [5 μg/ml Streptavidin, 0.18 μg/ml PT66-K, 30 mM HEPES (pH 7.0), 150 mM KF, 75 mM EDTA, 0.15% BSA, 0.075% Tween20], which contained Streptavidin-Xlent (Cisbio) and Mab PT66-K (Cisbio), was added to the reaction solution to terminate the enzyme reaction. At the same time, the reaction solution was left at rest at room temperature for 1 hour, so as to carry out an antigen-antibody reaction. Thereafter, using EnVision (PerkinElmer), the time-resolved fluorescence was measured at 615 nm and 665 nm, so that the phosphorylation of the substrate peptide was measured.
In addition, the following are standards for evaluating IC50 of Syk-inhibitory activity used in Table 21. • A: Up to 10 nM • B: 10 to 50 nM • C: 50 to 100 nM • D: 100 to 1000 nM The set of numbers (XYZ-xyz) given in each Example number column indicates the corresponding Example number (Example XYZ-xyz) in Table 21.

Structure (SMILES) | IC50
COc1cc(Nc2nc(N3CCNC(=O)C3)c(F)cc2C(N)=O)cc(OC)c1 [Example 016-024] | 0.1 to 1 µM
CCCC[C@H](CN)Nc1nc(Nc2cncc(C3CC3)c2)c(C(N)=O)cc1F [Example 006-340, (R)-6-((1-aminohexan-2-yl)amino)-2-((5-cyclopropylpyridin-3-yl)amino)-5-fluoronicotinamide] | < 0.01 µM
NC(=O)c1cc(F)c(NC2CCCCC2N)nc1Nc1cncc(C2CCCC2)c1 (stereo not drawn) [Example 002-094] | 0.01 to 0.05 µM
NC(=O)c1cc(F)c(NC2CCCCC2N)nc1Nc1cccn2ccnc12 (stereo not drawn) [Example 002-064] | 0.1 to 1 µM
COc1ccc2cc(Nc3nc(NC4CCCCC4N)c(F)cc3C(N)=O)ccc2n1 (stereo not drawn) [Example 002-101] | < 0.01 µM
Cc1cncc(Nc2nc(N[C@H](c3ccccc3)[C@@H](N)c3ccccc3)c(F)cc2C(N)=O)c1 (racemic) [Example 006-140, 6-(((1R,2S)-2-amino-1,2-diphenylethyl)amino)-5-fluoro-2-((5-methylpyridin-3-yl)amino)nicotinamide 6-(((1S,2R)-2-amino-1,2-diphenylethyl)amino)-5-fluoro-2-((5-methylpyridin-3-yl)amino)nicotinamide] | 0.05 to 0.1 µM
Cn1ncc2cc(Nc3nc(N[C@H](c4ccccc4)[C@@H](N)c4ccccc4)c(F)cc3C(N)=O)ccc21 (racemic) [Example 006-136, 6-(((1R,2S)-2-amino-1,2-diphenylethyl)amino)-5-fluoro-2-((1-methyl-1H-indazol-5-yl)amino)nicotinamide 6-(((1S,2R)-2-amino-1,2-diphenylethyl)amino)-5-fluoro-2-((1-methyl-1H-indazol-5-yl)amino)nicotinamide] | < 0.01 µM
NC(=O)c1cc(F)c(N[C@@H]2CCCC[C@@H]2N)nc1Nc1cncc(Oc2ccccc2)c1 [Example 004-041] | 0.05 to 0.1 µM
CCCC[C@@H](Nc1nc(Nc2cnc3cc(OC)ccc3c2)c(C(N)=O)cc1F)[C@H](C)N [Example 006-205, 6-(((2S,3R)-2-aminoheptan-3-yl)amino)-5-fluoro-2-((7-methoxyquinolin-3-yl)amino)nicotinamide] | < 0.01 µM
Cn1nc(N2CCOCC2)c2cc(Nc3nc(N[C@@H]4CCCC[C@@H]4N)c(F)cc3C(N)=O)ccc21 [Example 006-560, 6-(((1R,2S)-2-aminocyclohexyl)amino)-5-fluoro-2-((1-methyl-3-morpholino-1H-indazol-5-yl)amino)nicotinamide] | 0.01 to 0.05 µM
CN1CCOc2nc3ccc(Nc4nc(NC5CCCCC5N)c(F)cc4C(N)=O)cc3nc21 (stereo not drawn) [Example 002-122] | < 0.01 µM
Cc1ncc(Nc2nc(NC3CCCCC3N)c(F)cc2C(N)=O)cc1-c1ccccc1 (stereo not drawn) [Example 002-023] | < 0.01 µM
NC(=O)c1cc(F)c(NC2CCCCC2N)nc1Nc1cncc(-c2ccc(OC(F)(F)F)cc2)c1 (stereo not drawn) [Example 002-174] | 0.05 to 0.1 µM
NC(=O)c1cc(F)c(N[C@@H]2CCCC[C@@H]2N)nc1Nc1ccc2[nH]c(C(=O)N3CCOCC3)cc2c1 (relative stereo) [Example 029-017, 6-(cis-2-aminocyclohexylamino)-5-fluoro-2-((2-(morpholine-4-carbonyl)-1H-indol-5-yl)amino)nicotinamide] | < 0.01 µM
C[C@H](N)[C@@H](CC1CC1)Nc1nc(Nc2ccc3c(c2)c(F)nn3C)c(C(N)=O)cc1F [Example 006-439, 6-(((2R,3S)-3-amino-1-cyclopropylbutan-2-yl)amino)-5-fluoro-2-((3-fluoro-1-methyl-1H-indazol-5-yl)amino)nicotinamide] | 0.01 to 0.05 µM
NC(=O)c1cc(F)c(N[C@@H]2CCCC[C@@H]2N)nc1Nc1cc(O)c2ncccc2c1 (relative stereo) [Example 042-000] | < 0.01 µM
CC(C)C[C@@H](Nc1nc(Nc2ccc3c(c2)c(-n2cccn2)nn3C)c(C(N)=O)cc1F)[C@H](C)N [Example 006-595, 6-(((2S,3R)-2-amino-5-methylhexan-3-yl)amino)-5-fluoro-2-((1-methyl-3-(1H-pyrazol-1-yl)-1H-indazol-5-yl)amino)nicotinamide] | < 0.01 µM
NC[C@H](Nc1nc(Nc2cncc(-c3ccccc3)c2)c(C(N)=O)cc1F)C1CC1 [Example 006-337, (R)-6-((2-amino-1-cyclopropylethyl)amino)-5-fluoro-2-((5-phenylpyridin-3-yl)amino)nicotinamide] | 0.01 to 0.05 µM

Structure (SMILES) | IC50
C[C@H](N)[C@H](C)Nc1nc(Nc2ccc3ncccc3c2)c(C(N)=O)cc1F [Example 006-202, 6-(((2S,3S)-3-aminobutan-2-yl)amino)-5-fluoro-2-((quinolin-6-yl)amino)nicotinamide] | 0.05 to 0.1 µM
Cc1ncc(Nc2nc(NC3CCCCC3N)c(F)cc2C(N)=O)cc1N1CCCC1 (stereo not drawn) [Example 002-040] | 0.01 to 0.05 µM
NC(=O)c1cc(F)c(NC2CCCCC2N)nc1Nc1ccnc(-c2ccc(F)cc2F)c1 (stereo not drawn) [Example 002-133] | < 0.01 µM
NC(=O)c1cc(F)c(N[C@@H]2CCCC[C@@H]2N)nc1Nc1cnc(N2CCOCC2)c(-n2cccn2)c1 [Example 006-527, 6-(((1R,2S)-2-aminocyclohexyl)amino)-5-fluoro-2-((6-morpholino-5-(1H-pyrazol-1-yl)pyridin-3-yl)amino)nicotinamide] | 0.05 to 0.1 µM
CCOc1ccc2cc(Nc3nc(N[C@@H]4CCCC[C@@H]4N)c(F)cc3C(N)=O)cnc2c1 (relative stereo) [Example 004-173, 6-(cis-2-aminocyclohexylamino)-2-((7-ethoxyquinolin-3-yl)amino)-5-fluoronicotinamide] | < 0.01 µM
COc1ncc(Nc2nc(NC3CCCCC3N)c(F)cc2C(N)=O)cc1-c1ccccc1 (stereo not drawn) [Example 002-148] | 0.01 to 0.05 µM
NC(=O)c1cc(F)c(NCc2ncc[nH]2)nc1Nc1ccc2ncccc2c1 [Example 012-028] | 0.1 to 1 µM
NC(=O)c1cc(F)c(NC2CCCCC2N)nc1Nc1ccc(OCCO)nc1 (stereo not drawn) [Example 002-079] | 0.05 to 0.1 µM
NC(=O)c1cc(F)c(NC2CCCC[C@@H]2N)nc1Nc1ccnc2c1ccn2CC(=O)N1CCOCC1 (stereo partly drawn) [Example 029-006] | < 0.01 µM
NC(=O)c1cc(F)c(N[C@@H]2CCCC[C@@H]2N)nc1Nc1ccc(C(F)(F)F)nc1 (relative stereo) [Example 004-102, 6-(cis-2-aminocyclohexylamino)-5-fluoro-2-((6-(trifluoromethyl)pyridin-3-yl)amino)-nicotinamide] | 0.05 to 0.1 µM
NC(=O)c1cc(F)c(NC2CCCCC2N)nc1Nc1cncc(NC(=O)c2ccc(F)cc2F)c1 (stereo not drawn) [Example 027-029] | 0.01 to 0.05 µM
C#CCNc1nc(Nc2cc(OC)cc(OC)c2)c(C(N)=O)cc1F [Example 016-012] | 0.1 to 1 µM
NC(=O)c1cc(F)c(N[C@@H]2CCCC[C@@H]2N)nc1Nc1ccc2c(cnn2CC2CC2)c1 (relative stereo) [Example 004-090, 6-(cis-2-aminocyclohexylamino)-2-((1-(cyclopropylmethyl)-1H-indazol-5-yl)amino)-5-fluoronicotinamide] | 0.01 to 0.05 µM
COc1cc(Nc2nc(NC(C(N)=O)c3ccccc3)c(F)cc2C(N)=O)cc(OC)c1 (stereo not drawn) [Example 016-009] | 0.01 to 0.05 µM
NC[C@@H](Nc1nc(Nc2ccc3ncccc3c2)c(C(N)=O)cc1F)c1ccccn1 [Example 39-5, (R)-6-((2-amino-1-(pyridin-2-yl)ethyl)amino)-5-fluoro-2-((quinolin-6-yl)amino)nicotinamide] | 0.05 to 0.1 µM
NC(=O)c1cc(F)c(NCc2cnc[nH]2)nc1Nc1ccc2ncccc2c1 [Example 012-015] | 0.05 to 0.1 µM
Cn1nc(-n2cccn2)c2cc(Nc3nc(N[C@@H]4CCCC[C@@H]4N)c(F)cc3C(N)=O)ccc21 [Example 006-594, 6-(((1R,2S)-2-aminocyclohexyl)amino)-5-fluoro-2-((1-methyl-3-(1H-pyrazol-1-yl)-1H-indazol-5-yl)amino)nicotinamide] | < 0.01 µM
COCCOc1cnc2cc(Nc3nc(N[C@@H]4CCCC[C@@H]4N)c(F)cc3C(N)=O)ccc2n1 (relative stereo) [Example 004-178, 6-(cis-2-aminocyclohexylamino)-5-fluoro-2-((2-(2-methoxyethoxy)quinoxalin-6-yl)amino)-nicotinamide] | 0.01 to 0.05 µM

Same assay, conditions: read-out: Syk-inhibitory activity (IC50)

Structure (SMILES) | IC50
COc1cc(Nc2nc(NCCc3c[nH]c4ccccc34)c(F)cc2C(N)=O)cc(OC)c1 [Example 19, 2-(3,5-dimethoxyphenylamino)-5-fluoro-6-(2-(1H-indole-3-yl)ethylamino)nicotinamide] | ≤ 1 µM
NC(=O)c1cc(F)c(NCc2cnn[nH]2)nc1Nc1ccc2ncccc2c1 [Example 12-27, 5-fluoro-2-(quinolin-6-ylamino)-6-(((1H-1,2,3-triazol-5-yl)methyl)amino)nicotinamide] | ≤ 1 µM
NC(=O)c1cc(F)c(NCc2ncc[nH]2)nc1Nc1ccc2ncccc2c1 [Example 12-28, 5-fluoro-6-(((1H-imidazol-2-yl)methyl)amino)-2-(quinolin-6-ylamino)nicotinamide] | ≤ 1 µM
